# Experimental data from US4839374A, “4-((Bicyclic heterocyclyl)-methyl and -hetero)-piperidines” (Janssen Pharmaceutica, N.V., priority 1987, dated 1989).
# Like-named read-outs stand apart in the source and are kept apart here.
# Legend:
# [1] = test system: effects of serotonin; assay: Antagonistic activity on the effects of serotonin in the gastric lesion test (lesions induced by compound 48/80); format: in vivo, rats of a Wistar inbred strain; settings: for ED50: Rattus norvegicus, po, read-out: gastric lesion test ED50
# Description: Antagonistic activity on the effects of serotonin in the gastric lesion test.
# The shock, followed by dead, can be avoided if the rats are pretreated with a classical H 1 antagonist.
# Male rats of a Wistar inbred strain, weighing 220-250 g, were starved overnight, water being available ad libitum. The test compounds were administered orally as a solution or as a suspension in aqueous medium. A control rat and a "blank" rat received the test compound. One hour later 5-[4-(diphenylmethyl)1-piperazinylmethyl]-1-methyl-1H-benzimidazole-2-methanol was administered subcutaneously to all rats at the dose of 2.5 mg/kg. […] Four hours after the intravenous injection of compound 48/80, the rats were decapitated and the stomachs were removed. Subsequently the stomachs were inspected for distension and contents (blood, fluid, food) and thoroughly rinsed. The macroscopic lesions were scored from 0 to +++, 0 corresponding to complete absence of visible lesions and the highest score corresponding to reddish rough patches covering more than half the glandular area.
# The second column of tables 1-4 show for a number of compounds of formula (I) the doses (in mg/kg body weight) at which the distension of the stomach as well as the lesions in the glandular area of the stomach are completely absent in 50% of the test rats (ED50 -value).
# [2] = test system: compound 48/80-induced lethality; assay: Protection of rats from compound 48/80-induced lethality; format: in vivo, rats of an inbred Wistar strain; settings: protection of 50% of animals, survival after 4 hours; for ED50: Rattus norvegicus, 4 h, read-out: Compound 48/80 lethality test in rats ED50, s.c. or p.o. 1 h before compound 48/80 0.5 mg/kg i.v.
# In short: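 Male inbred Wistar rats (240-260 g), starved overnight, dosed subcutaneously or orally with compound or 0.9% NaCl before compound 48/80 challenge. Survival at 4 hours counted as protection. ED50 in mg/kg is the dose protecting 50% of animals from lethality.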
# [3] = compound 48/80 1 mg/kg i.v., distension and lesions of stomach completely absent in 50% of rats
SMILES,"ED50 [1, 3] [mg/kg]",ED50 [2] [mg/kg],ED50 [1] [mg/kg],"gastric lesion test ED50 ([1]; oral, compound 48/80 1 mg/kg i.v., distension and lesions of stomach completely absent in 50% of rats, 1 mg/kg) [mg/kg body weight]","Compound 48/80 lethality test in rats ED50 ([2]; s.c. or p.o. 1 h before compound 48/80 0.5 mg/kg i.v., 0.5 mg/kg, 240 min) [mg/kg body weight]"
Cc1nc2n(c(=O)c1CCN1CCC(Oc3nc4ccccc4n3Cc3ccc(F)cc3)CC1)CCCC2 [Compound 264],0.63,0.04,–,–,–
"Fc1ccc(Cn2c(CC3CCN(C4CCN(c5ncccn5)CC4)CC3)nc3ccccc32)cc1 [Compound 347, 4-[[1-[(4-fluorophenyl)methyl]-1H-benzimidazol-2-yl]methyl]-1'-(2-pyrimidinyl)-[1,4'-bipiperidine]]",0.63,0.08,–,–,–
Cc1nc2scc(C)n2c(=O)c1CCN1CCC(Cc2nc3ccccc3n2Cc2ccc(F)cc2)CC1 [Compound 219],0.63,0.08,–,–,–
COc1ccc(CCN2CCC(Cc3nc4ccccc4n3Cc3ccoc3)CC2)cc1 [Compound 260],0.63,0.01,–,–,–
COc1ccc(CCN2CCC(Cc3nc4cccnc4n3Cc3cccs3)CC2)cc1 [Compound 238],0.63,0.08,–,–,–
"Fc1ccc(Cn2c(CC3CCN(CCNc4nnc(Cl)c5ccccc45)CC3)nc3ccccc32)cc1 [Compound 381, 4-chloro-N-[2-[4-[[1-[(4-fluorophenyl)methyl]-1H-benzimidazol-2-yl]methyl]-1-piperidinyl]ethyl]-1-phthalazinamine]",0.16,0.08,–,–,–
O=c1[nH]c2ccccc2c(=O)n1CCN1CCC(Cc2nc3ccccc3n2Cc2ccc(F)cc2)CC1 [Compound 209],0.63,0.08,–,–,–
"Fc1ccc(Cn2c(CC3CCN(CCNc4ncccn4)CC3)nc3ncccc32)cc1 [Compound 348, N-[2-[4[[1-[(4-fluorophenyl)methyl]-1H-imidazo[4,5-b]pyridin-2-yl]methyl]-1-piperidinyl]ethyl]-2-pyrimidinamine]",–,0.04,0.04,–,–
"Fc1ccc(Cn2c(CC3CCN(CCc4ccccn4)CC3)nc3ccccc32)cc1 [Compound 103, 1-[(4-fluorophenyl)methyl]-2-[[1-[2-(2-pyridinyl)ethyl]-4-piperidinyl]-methyl]-1H-benzimidazole]",0.16,0.005,–,–,–
"O=C1OCCN1CCN1CCC(Cc2nc3ccccc3n2Cc2ccc(F)cc2)CC1 [Compound 385, 3-[2-[4-[[1-[(4-fluorophenyl)methyl]-1H-benzimidazol-2-yl]methyl]-1-piperidinyl]ethyl]2-oxazolidinone]",–,0.01,0.08,–,–
c1cnc(NCCN2CCC(Cc3nc4ccccc4n3Cc3ccco3)CC2)nc1 [Compound 334],0.31,0.005,–,–,–
"c1cnc(OCCN2CCC(Cc3nc4ccccc4n3Cc3ccco3)CC2)nc1 [Compound 392, 1-(2-furanylmethyl)-2-[[1-[2-(2-pyrimidinyloxy)ethyl]-4-piperidinyl]methyl]-1H-benzimidazole]",0.63,0.02,–,–,–
O=C(CCCN1CCC(Cc2nc3cccnc3n2Cc2ccc(F)cc2)CC1)c1ccc(F)cc1 [Compound 228],–,–,–,0.01,0.04
O=c1[nH]c2ccccc2n1CCCN1CCC(Cc2nc3ccccc3n2Cc2ccc(F)cc2)CC1 [Compound 207],–,0.08,0.08,–,–
Cc1nc2ccccn2c(=O)c1CCN1CCC(Cc2nc3ccccc3n2Cc2ccc(F)cc2)CC1 [Compound 214],–,0.08,0.04,–,–
"CNC(=S)NCCN1CCC(Cc2nc3ccccc3n2Cc2ccc(F)cc2)CC1 [Compound 428, N-[2-[4-[[1-[(4-fluorophenyl)methyl]-1H-benzimidazol-2-yl]methyl]-1-piperidinyl]ethyl]-N'-methylthiourea]",0.01,0.04,–,–,–
O=c1cc[nH]c(=O)n1CCN1CCC(Cc2nc3ccccc3n2Cc2ccc(F)cc2)CC1 [Compound 164],0.02,0.02,–,–,–
"CNc1ccccc1C(=O)NCCN1CCC(Cc2nc3ccccc3n2Cc2ccc(F)cc2)CC1 [Compound 467, N-[2-[4-[[1-[(4-fluorophenyl)methyl]-1H-benzimidazol-2-yl]methyl]-1-piperidinyl]ethyl]-2-(methylamino)benzamide]",–,0.04,0.08,–,–
Fc1ccc(Cn2c(CC3CCN(CCN4CCOCC4)CC3)nc3cccnc32)cc1 [Compound 124],0.31,0.04,–,–,–

SMILES,"ED50 [1, 3] [mg/kg]",ED50 [2] [mg/kg],ED50 [1] [mg/kg],"gastric lesion test ED50 ([1]; oral, compound 48/80 1 mg/kg i.v., distension and lesions of stomach completely absent in 50% of rats, 1 mg/kg) [mg/kg body weight]","Compound 48/80 lethality test in rats ED50 ([2]; s.c. or p.o. 1 h before compound 48/80 0.5 mg/kg i.v., 0.5 mg/kg, 240 min) [mg/kg body weight]"
Cn1c(O)nc2c(NCCN3CCC(Cc4nc5ccccc5n4Cc4ccc(F)cc4)CC3)ncnc21 [Compound 371],0.63,0.16,–,–,–
"Nc1ccccc1C(=O)NCCN1CCC(Cc2nc3ccncc3n2Cc2ccc(F)cc2)CC1 [Compound 477, 2-amino-N-[2-[4-[[3-[(4-fluorophenyl)methyl]-3H-imidazo[4,5-c]pyridin-2-yl]-methyl]-1-piperidinyl]-ethyl]benzamide]",0.63,0.02,–,–,–
"O=c1cc[nH]c(NCCN2CCC(Cc3nc4ccccc4n3Cc3ccc(F)cc3)CC2)n1 [Compound 331, 2-[[2-[4-[[1-[(4-fluorophenyl)methyl]-1H-benzimidazol-2-yl]methyl]-1-piperidinyl]ethyl]amino]-4(1H)-pyrimidinone]",0.02,0.04,–,–,–
"OCCN1CCC(Cc2nc3ccccc3n2Cc2ccc(F)cc2)CC1 [Compound 107, 4-[[1-[(4-fluorophenyl)methyl]-1H-benzimidazol-2-yl]methyl]-1-piperidineethanol]",–,0.04,0.08,–,–
"COc1ccc(CCN2CCC(Cc3nc4ccccc4n3Cc3ccsc3)CC2)cc1 [Compound 523, 2-[[1-[2-(4-methoxyphenyl)ethyl]-4-piperidinyl]methyl]-1-(3-thienylmethyl)-1H-benzimidazole]",0.31,0.04,–,–,–
"Fc1ccc(Cn2c(CC3CCN(CCNc4ncccn4)CC3)nc3ccncc32)cc1 [Compound 351, N-[2-[4-[[3-[(4-fluorophenyl)methyl]-3H-imidazo[4,5-c]pyridin-2-yl]methyl]-1-piperdinyl]-ethyl]-2-pyrimidinamine]",–,0.02,0.08,–,–
"CC(C)NC(=O)CCN1CCC(Cc2nc3cccnc3n2Cc2ccc(F)cc2)CC1 [Compound 143, 4-[[3-[(4-fluorophenyl)methyl]-3H-imidazo[4,5-b]pyridin-2-yl]methyl]-N-(1-methylethyl)-1-piperidinepropanamide]",0.63,0.04,–,–,–
"CCOC(=O)c1csc(NCCN2CCC(Cc3nc4ccccc4n3Cc3ccc(F)cc3)CC2)n1 [Compound 455, ethyl 2-[(2-[4-[(1-[(4-fluorophenyl)methyl]-1H-benzimidazol-2-yl]methyl]-1-piperidinyl]ethyl]amino]-4-thiazolecarboxylate]",0.63,0.04,–,–,–
"Fc1ccc(Cn2c(CC3CCN(CCNc4ncccn4)CC3)nc3cccnc32)cc1 [Compound 376, N-[2-[4-[[3-[(4-fluorophenyl)methyl]-3H-imidazo[4,5-b]pyridin-2-yl]methyl]-1-piperidinyl]ethyl]-2-pyrimidinamine]",0.63,0.02,–,–,–
Fc1ccc(Cn2c(CC3CCN(CCNc4cc(Cl)ncn4)CC3)nc3ccccc32)cc1 [Compound 384],0.63,0.08,–,–,–
"O=c1c2ccccc2[nH]c(=S)n1CCN1CCC(Cc2nc3ccccc3n2Cc2ccc(F)cc2)CC1 [Compound 460, 3-[2-[4-[[1-[(4-fluorophenyl)methyl]-1H-benzimidazol-2-yl]methyl]-1-piperidinyl]ethyl]-2,3-dihydro-2-thioxo-4(1H)-quinazolinone]",0.63,0.08,–,–,–
Cc1nc2n(c(=O)c1CCN1CCC(Cc3nc4cccnc4n3Cc3ccco3)CC1)CCS2 [Compound 168],0.63,0.04,–,–,–
"Fc1ccc(Cn2c(CC3CCN(Cc4ccccc4)CC3)nc3ccccc32)cc1 [Compound 34, 1-[(4-fluorophenyl)methyl]-2-[[1-(phenylmethyl)-4-piperidinyl]methyl]-1H-benzimidazole]",0.63,0.04,–,–,–
O=c1[nH]c2ccccc2c(=O)n1CCN1CCC(Cc2nc3cccnc3n2Cc2ccc(F)cc2)CC1 [Compound 224],–,0.04,0.08,–,–
Fc1ccc(Cn2c(CC3CCN(CCNc4nccs4)CC3)nc3cccnc32)cc1 [Compound 357],0.63,0.02,–,–,–
Fc1ccc(Cn2c(CC3CCN(Cc4cn5ccccc5n4)CC3)nc3ccccc32)cc1 [Compound 184],0.63,0.02,–,–,–
O=c1[nH]c2ccccc2c(=O)n1CCN1CCC(Cc2nc3ccccc3n2Cc2cscn2)CC1 [Compound 187],0.31,0.04,–,–,–
"O=c1[nH]c2ccccc2c(=O)n1CCCCN1CCC(Cc2nc3ccccc3n2Cc2ccc(F)cc2)CC1 [Compound 489, 3-[4-[4-[[1-[(4-fluorophenyl)methyl]-1H-benzimidazol-2-yl]methyl]-1-piperidinyl]butyl]-2,4(1H,3H)-quinazolinedione]",0.63,0.08,–,–,–
